From patent publication US12365677B2, “Degraders that target proteins via KEAP1” (DANA-FARBER CANCER INSTITUTE, INC., priority 2018, dated 2025)

Legend:
Type in all cases: cell-based
[1] = tested on: BRD2-BD1, BRD2-BD2, BRD3-BD1, BRD3-BD2, BRD4-BD1, BRD4-BD2 as GFP fusion proteins; test: FACS eGFP/mCherry reporter cell lines for single bromodomains, degradation compared across bromodomains; settings: concentration series starting at 20 μM, 5× dilution, 24 hours at 37° C.
Description: (§1) To evaluate the activity of KEAP1-BRD targeting degraders in the cell, FACS-enabled stable reporter cell lines for single Bromodomain (BD) of the BRD2, 3 and 4 proteins were developed using the pCDNA5/FRT vector of the FLp-In system and followed the manufacturer's protocol.
(§2) A DNA sequence was constructed where a single BD (BD1 or BD2) of a BRD protein was tagged at the C-terminus with an enhanced Green Fluorescent Protein (eGFP). This sequence was followed by a P2A linker and a sequence that codes for mCherry fluorescent protein. The P2A linker that is located between the eGFP-tagged protein and the mCherry causes a single cut in the backbone amide bonds of the polypeptide during the translation of the mRNA, resulting in generation of two polypeptide chains, an eGFP-tagged protein and a mCherry protein. The expression level of these two polypeptides is therefore identical as they originate from a single mRNA, making the mCherry signal an expression level reporter as an internal reference. […]
(§3) The treated cells were then harvested by trypsin digest, brought to a volume of 200 μL with DMEM medium supplemented with 10% FBS and transferred to a 96-well assay plate for FACS reading. The eGFP/RFP ratio for each condition was then calculated and normalized against the zero-compound condition and plotted. […]

BRD2 [2] = biological target: T1, BRD2 (Homo sapiens, UniProt P25440); test: Immunoblot of MM.1S multiple myeloma cells; set-up: endogenous in cells; host or cells: MM.1S multiple myeloma cells; settings: MM.1S cells
Protocol: (§4) MM.1S multiple myeloma cells were treated with 0, 1, 5 μM bifunctional compound 1 and 9 or bifunctional compound 20 (0.5 μM, as a positive control, known degrader of BRD) for 14 or 24 h, then lysed and immunoblotted with antibodies to BRD2, BRD3, BRD4 and β-Actin.
(§5) MM.1S multiple myeloma cells were treated with 0, 1, 5 μM bifunctional compound 1 and 9 or bifunctional compound 20 (0.5 μM, as a positive control) for 14 or 24 h, then lysed and immunoblotted with antibodies to BRD2, BRD3, BRD4 and β-Actin.

BRD4 = biological target: T2, BRD4 (Homo sapiens, UniProt O60885); test: Immunoblot of MM.1S multiple myeloma cells; settings: MM.1S cells
T2 construct: endogenous in cells; host or cells: MM.1S multiple myeloma cells
Protocol: as §4, §5

BRD3 = biological target: T3, BRD3 (Homo sapiens, UniProt Q15059); test: Immunoblot of MM.1S multiple myeloma cells; settings: MM.1S cells
T3 construct: endogenous in cells; host or cells: MM.1S multiple myeloma cells
Protocol: as §4, §5

BRD2BD2 = biological target: T4, BRD2BD2 (Homo sapiens, UniProt P25440); test: Rescue of degradation in reporter cell line by pre-treatment with inhibitors (compound 1); settings: then concentration series of the degrader for 24 hours
T4 construct: a single BD (BD1 or BD2) of a BRD protein was tagged at the C-terminus with an enhanced Green Fluorescent Protein (eGFP); P2A linker (part left after the co-translational cut; mCherry is released as a separate chain) (C); expressed in transfected cells
Description: as §1, §2
The treated cells were then harvested by trypsin digest, brought to a volume of 200 μL with DMEM medium supplemented with 10% FBS and transferred to a 96-well assay plate for FACS reading. The eGFP/RFP ratio for each condition was then calculated and normalized against the zero-compound condition and plotted.
The rescue of BRD2BD2 degradation with two inhibitors JQ1 and MLN4924 was then determined. […]

BRD2^BD1 [3] = biological target: T5, BRD2^BD1 (Homo sapiens, UniProt P25440); test: Rescue of degradation in reporter cell line by pre-treatment with inhibitors (compound 9); settings: pre-treated with 10 μM JQ1 for 1 hour, then concentration series of the degrader for 24 hours
T5 construct: a single BD (BD1 or BD2) of a BRD protein was tagged at the C-terminus with an enhanced Green Fluorescent Protein (eGFP); P2A linker (part left after the co-translational cut; mCherry is released as a separate chain) (C); expressed in transfected cells
Description: as §1
(§6) A DNA sequence was constructed where a single BD (BD1 or BD2) of a BRD protein was tagged at the C-terminus with an enhanced Green Fluorescent Protein (eGFP). This sequence was followed by a P2A linker and a sequence that codes for mCherry fluorescent protein. The P2A linker that is located between the eGFP-tagged protein and the mCherry causes a single cut in the backbone amide bonds of the polypeptide during the translation of the mRNA, resulting in generation of two polypeptide chains, an eGFP-tagged protein and a mCherry protein. The expression level of these two polypeptides is therefore identical as they originate from a single mRNA, making the mCherry signal an expression level reporter as an internal reference.
(§7) The reporter cell lines were seeded on a 48-well plate the day before. […]
as §3

BRD2^BD1 [4] = biological target: T6, BRD2^BD1 (Homo sapiens, UniProt P25440+Q14145); test: as above; settings: pre-treated with 10 μM MLN4924 for 1 hour, then concentration series of the degrader for 24 hours
T6 construct: a single BD (BD1 or BD2) of a BRD protein was tagged at the C-terminus with an enhanced Green Fluorescent Protein (eGFP); P2A linker (part left after the co-translational cut; mCherry is released as a separate chain) (C); expressed in transfected cells
Description: as §1, §6, §7, §3

BRD2 [5] = biological target: T1, BRD2; test: TMT quantitative proteomics, change in relative protein abundance in HEK293T cells; set-up: endogenous in cells; host or cells: HEK293T cells; settings: 5 μM, 6 hours
Protocol: Lysis buffer (8 M Urea, 50 mM NaCl, 50 mM 4-(2hydroxyethyl)-1-piperazineethanesulfonic acid (EPPS) pH 8.5. Protease and Phosphatase inhibitors from Roche) was added to the cell pellets and homogenized by 20 passes through a 21 gauge (1.25 in. long) needle to achieve a cell lysate with a protein concentration between 1-4 mg/mL. A micro-BCA assay (Pierce™) was used to determine the final protein concentration in the cell lysate. 200 μg of protein for each sample were reduced and alkylated as previously described. Proteins were precipitated using methanol/chloroform. In brief, four volumes of methanol were added to the cell lysate, followed by one volume of chloroform, and finally three volumes of water. The mixture was vortexed and centrifuged to separate the chloroform phase from the aqueous phase. […]
Precipitated protein was resuspended in 4 M urea, 50 mM HEPES pH 7.4, followed by dilution to 1 M urea with the addition of 200 mM EPPS, pH 8. […] The sample channels were combined at a 1:1:1:1:1:1:1:1:1:1 ratio, desalted using C18 solid phase extraction cartridges (Waters™) and analyzed by LC-MS for channel ratio comparison.
Samples were then combined using the adjusted volumes determined in the channel ratio analysis and dried down in a speed vacuum. […]

T1 sequence (P25440 whole entry): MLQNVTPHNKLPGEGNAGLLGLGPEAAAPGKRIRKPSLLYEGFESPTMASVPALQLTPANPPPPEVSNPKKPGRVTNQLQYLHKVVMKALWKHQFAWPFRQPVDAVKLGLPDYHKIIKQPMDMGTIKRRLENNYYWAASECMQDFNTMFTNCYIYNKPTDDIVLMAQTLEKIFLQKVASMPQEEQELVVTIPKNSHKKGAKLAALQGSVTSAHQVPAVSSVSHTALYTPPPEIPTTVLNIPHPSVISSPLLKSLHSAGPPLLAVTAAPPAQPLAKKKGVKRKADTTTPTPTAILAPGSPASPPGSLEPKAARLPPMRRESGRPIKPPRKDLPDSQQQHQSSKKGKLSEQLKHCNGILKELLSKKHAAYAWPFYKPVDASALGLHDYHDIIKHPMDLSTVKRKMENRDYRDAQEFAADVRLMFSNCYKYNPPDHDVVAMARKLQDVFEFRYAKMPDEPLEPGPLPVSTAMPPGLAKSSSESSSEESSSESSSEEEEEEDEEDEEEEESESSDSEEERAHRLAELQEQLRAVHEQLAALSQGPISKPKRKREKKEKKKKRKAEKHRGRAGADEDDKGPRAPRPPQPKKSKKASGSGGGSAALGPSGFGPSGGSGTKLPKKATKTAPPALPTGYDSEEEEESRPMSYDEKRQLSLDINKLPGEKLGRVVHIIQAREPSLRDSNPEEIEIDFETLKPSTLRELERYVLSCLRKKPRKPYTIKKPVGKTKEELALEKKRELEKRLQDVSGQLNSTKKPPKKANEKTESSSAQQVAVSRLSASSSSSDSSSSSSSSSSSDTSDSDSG
T3 sequence (Q15059 whole entry): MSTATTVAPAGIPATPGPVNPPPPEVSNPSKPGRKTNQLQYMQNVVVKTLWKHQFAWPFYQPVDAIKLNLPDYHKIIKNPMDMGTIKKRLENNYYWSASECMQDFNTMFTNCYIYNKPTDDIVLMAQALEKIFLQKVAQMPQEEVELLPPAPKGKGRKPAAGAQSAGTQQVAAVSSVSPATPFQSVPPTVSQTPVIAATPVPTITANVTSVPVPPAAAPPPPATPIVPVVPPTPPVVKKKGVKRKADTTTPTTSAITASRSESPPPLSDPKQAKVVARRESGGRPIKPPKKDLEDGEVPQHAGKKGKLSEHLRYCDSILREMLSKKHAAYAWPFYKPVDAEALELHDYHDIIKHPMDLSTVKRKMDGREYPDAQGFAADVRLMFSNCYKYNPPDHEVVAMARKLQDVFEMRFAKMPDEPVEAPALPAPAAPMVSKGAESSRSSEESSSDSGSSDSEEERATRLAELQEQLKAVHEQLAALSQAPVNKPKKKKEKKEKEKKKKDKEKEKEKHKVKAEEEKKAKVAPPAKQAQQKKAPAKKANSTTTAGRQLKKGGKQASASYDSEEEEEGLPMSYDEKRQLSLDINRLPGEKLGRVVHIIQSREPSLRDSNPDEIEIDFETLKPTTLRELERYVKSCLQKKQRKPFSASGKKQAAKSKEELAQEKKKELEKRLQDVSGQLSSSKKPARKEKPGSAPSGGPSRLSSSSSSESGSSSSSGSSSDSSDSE
T4 sequence (P25440 344-453): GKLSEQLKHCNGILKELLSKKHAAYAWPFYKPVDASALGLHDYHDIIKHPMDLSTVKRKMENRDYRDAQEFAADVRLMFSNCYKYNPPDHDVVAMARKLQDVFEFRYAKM
T5 sequence (P25440 74-180 limits assumed): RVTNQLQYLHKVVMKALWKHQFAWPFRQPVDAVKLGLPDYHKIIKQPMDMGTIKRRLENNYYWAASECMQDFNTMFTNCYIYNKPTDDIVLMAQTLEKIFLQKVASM
T5 sequence (Q14145 whole entry, further chain): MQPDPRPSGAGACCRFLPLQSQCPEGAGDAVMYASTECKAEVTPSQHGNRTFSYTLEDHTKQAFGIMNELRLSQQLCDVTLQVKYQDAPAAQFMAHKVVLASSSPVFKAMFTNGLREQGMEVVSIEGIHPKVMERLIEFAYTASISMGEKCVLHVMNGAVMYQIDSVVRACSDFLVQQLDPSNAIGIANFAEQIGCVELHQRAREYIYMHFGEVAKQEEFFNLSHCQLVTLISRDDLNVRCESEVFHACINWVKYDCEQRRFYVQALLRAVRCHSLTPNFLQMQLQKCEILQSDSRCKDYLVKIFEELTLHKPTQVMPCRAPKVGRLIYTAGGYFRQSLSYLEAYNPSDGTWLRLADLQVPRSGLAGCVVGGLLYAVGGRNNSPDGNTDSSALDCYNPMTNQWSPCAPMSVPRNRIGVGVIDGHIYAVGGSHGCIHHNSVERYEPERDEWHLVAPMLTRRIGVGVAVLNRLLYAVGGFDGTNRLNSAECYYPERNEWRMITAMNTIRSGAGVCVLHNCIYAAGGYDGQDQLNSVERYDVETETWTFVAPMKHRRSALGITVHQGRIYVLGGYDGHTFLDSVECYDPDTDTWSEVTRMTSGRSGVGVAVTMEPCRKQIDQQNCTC
T6 sequence (P25440 74-180 limits assumed): as the sequence (P25440 74-180 limits assumed) above
T6 sequence (Q14145 whole entry): as the sequence (Q14145 whole entry, further chain) above

Row | Compound | degradation of BRD bromodomain reporters (normalized eGFP/RFP ratio), comparison between bromodomains [1] | degradation of BRD2 (immunoblot) (BRD2 [2]; 1 μM, both 14 and 24 h) | degradation of BRD2 (immunoblot), hook effect (BRD2 [2]; 5 μM, 14 or 24 h) | degradation of BRD4 (immunoblot) (BRD4; 1 μM, both 14 and 24 h) | degradation of BRD4 (immunoblot), hook effect (BRD4; 5 μM, 14 or 24 h) | degradation of BRD3 (immunoblot) (BRD3; 1 μM, both 14 and 24 h) | degradation of BRD3 (immunoblot), hook effect (BRD3; 5 μM, 14 or 24 h) | rescue of BRD2BD2 degradation by JQ1 (BRD2BD2; pre-treated with 10 μM JQ1 for 1 hour) | rescue of BRD2BD2 degradation by MLN4924 (BRD2BD2; pre-treated with 10 μM MLN4924 for 1 hour) | degradation of BRD2 (immunoblot) (BRD2 [2]; 5 μM, 24 h) | degradation of BRD4 (immunoblot) (BRD4; 5 μM, 24 h) | degradation of BRD3 (immunoblot) (BRD3; 5 μM, 24 h) | rescue of BRD2^BD1 degradation by JQ1 (BRD2^BD1 [3]) | rescue of BRD2^BD1 degradation by MLN4924 (BRD2^BD1 [4]) | BRD2 degradation (relative protein abundance vs DMSO) (BRD2 [5])
1 | COc1cc(C(CC(=O)O)c2ccc(C)c(CN3C[C@@H](C)Oc4cc(CCCCCCNC(=O)C[C@@H]5N=C(c6ccc(Cl)cc6)c6c(sc(C)c6C)-n6c(C)nnc65)ccc4S3(=O)=O)c2)cc2nnn(C)c12 (stereo partly drawn) [compound 1, 3-(3-(((R)-7-(6-(2-((S)-4-(4-chlorophenyl)-2,3,9-trimethyl-6H-thieno[3,2-f][1,2,4]triazolo[4,3-a][1,4]diazepin-6-yl)acetamido)hexyl)-4-methyl-1,1-dioxido-3,4-dihydro-2H-benzo[b][1,4,5]oxathiazepin-2-yl)methyl)-4-methylphenyl)-3-(7-methoxy-1-methyl-1H-benzo[d][1,2,3]triazol-5-yl)propanoic acid] | with the exception of BRD4BD1, bifunctional compound 1 targeted BRD-BD proteins with similar efficiency | slightly decreased the abundance | a decrease in BRD2, BRD3 and BRD4 degradation were observed | strongly induced the degradation | a decrease in BRD2, BRD3 and BRD4 degradation were observed | strongly induced the degradation | a decrease in BRD2, BRD3 and BRD4 degradation were observed | can be rescued by JQ1 | rescued by the neddylation inhibitor, MLN4924 |  |  |  |  |  | 
2 | COc1cc(C(CC(=O)O)c2ccc(C)c(CN(C)S(=O)(=O)c3ccc(OCCCCCCNC(=O)C[C@@H]4N=C(c5ccc(Cl)cc5)c5c(sc(C)c5C)-n5c(C)nnc54)cc3)c2)cc2nnn(C)c12 (stereo partly drawn) [compound 9, 3-(3-((4-(6-(2-((6S)-4-(4-chlorophenyl)-2,3,9-trimethyl-6H-thieno[3,2-f][1,2,4]triazolo[4,3-a][1,4]diazepin-6-yl)acetamido)hexyloxy)-N-methylphenylsulfonamido)methyl)-4-methylphenyl)-3-(7-methoxy-1-methyl-1H-benzo[d][1,2,3]triazol-5-yl)propanoic acid] | modest preference for BRD2^BD1 and BRD4^BD1 |  |  |  |  |  |  |  |  | slightly degraded | slightly degraded | slightly degraded | can be rescued by JQ1 | rescued by the neddylation inhibitor, MLN4924 | BRD2 degradation was observed
